Data published in patent US20090035353A1 (priority 2001, published 2009).

Assays:
Assay type in all cases: cell-based, Staphylococcus aureus
[1] = tested on: production of TSST-1 by S. aureus (MN8)
[2] = tested on: TSST-1 production by S. aureus FRI-1187
[3] = tested on: TSST-1 production by S. aureus FRI-1169

| Molecule | ELISA: TSST-1 ng/OD unit [1] | TSST-1 produced when compared to the control [1] | ELISA: TSST-1 ng/OD unit [2] | TSST-1 produced when compared to the control [2] | ELISA: TSST-1 ng/OD unit [3] | TSST-1 produced when compared to the control [3] |
| --- | --- | --- | --- | --- | --- | --- |
| 4-hydroxydiphenyl methane [4-Hydroxydiphenyl-methane] | 785 | – | – | – | – | – |
| Oc1c(Cl)cc(Cl)c(Cl)c1Cc1c(O)c(Cl)cc(Cl)c1Cl [Hexachlorophene, hexachlorophene] | 330 | significantly less TSST-1 | – | – | – | – |
| Oc1cc(Cl)ccc1Oc1ccc(Cl)cc1Cl [Triclosan, triclosan] | 129 | significantly less TSST-1 | 95 | less TSST-1 | 40 | less TSST-1 |
